Consider eight molecules from patent US20100093624A1, “PEPTIDE THERAPEUTICS THAT BIND VEGF AND METHODS OF USE THEREOF” (Cosmix Therapeutics LLC, priority 2008, published 2010).

The target in test [1] is T1, VEGF165 (Homo sapiens, UniProt P15692).
T1 construct: purchased
T1 sequence (P15692 27-191 isoform P15692-4 limits assumed): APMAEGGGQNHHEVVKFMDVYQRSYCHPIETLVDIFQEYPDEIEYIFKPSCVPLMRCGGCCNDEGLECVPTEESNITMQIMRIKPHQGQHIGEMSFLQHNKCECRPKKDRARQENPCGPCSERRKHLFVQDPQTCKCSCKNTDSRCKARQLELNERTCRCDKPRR
The test is described as follows: Equilibrium bead-binding assay. Particulars: bead-bound peptide, silver-stained SDS-PAGE. As for the experimental part: (§1) A quick, qualitative binding assay was devised in which biotin-tagged peptides are immobilized onto streptavidin-coated magnetic beads. The bead-bound peptides are then treated with VEGF (either synthetic or commercially available VEGF 165). After washing the beads are then boiled in denaturing buffer to release bound VEGF which is then detected by silver-stained SDS-PAGE gel (see FIG. 4).

The next test has as its target T2, L-VEGF (Homo sapiens, UniProt P15692).
T2 construct: VEGF (8-50)-thioester; VEGF (51-101)-thioester; made in house; host or cells: chemical synthesis (Boc SPPS, ligation of two peptides, oxidative folding)
T2 sequence (P15692 214-315): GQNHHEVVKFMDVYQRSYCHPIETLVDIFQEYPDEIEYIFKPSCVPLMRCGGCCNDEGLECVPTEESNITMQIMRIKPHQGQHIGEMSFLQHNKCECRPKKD
The experiment in a line: Equilibrium bead-binding assay. Particulars: bead-bound peptide, silver-stained SDS-PAGE. As for the experimental part:
as §1

For test [2], the system named is D-VEGF. The experiment in a line: Equilibrium bead-binding assay. Particulars: bead-bound peptide, silver-stained SDS-PAGE. As for the experimental part:
as §1

Another test has as its system HUVEC cells. The experiment in a line: HUVEC cell-proliferation assay. It counts as cell-based, human. Particulars: for inhibition of HUVEC growth: tritium-labeled thymidine. An excerpt: Initial investigation into the biological activity of the peptides involved use of a HUVEC cell-proliferation assay. A contractor (ReliaTech, Braunschweig, Germany) with considerable experience in this assay was employed to carry it out. ReliaTech's assay employed a radiation-based system to detect cell growth by monitoring DNA synthesis using tritium-labeled thymidine.
In this assay, pregrown, starved HUVEC cells proliferate in response to exposure to VEGF or bFGF. Inhibition of VEGF activity will result in a measurable decrease in cell proliferation. […] The effects seen for other peptide sequences were attributed to the DMSO content of their stock solutions (DMSO was required to solubilize all peptides in this assay except for 07-D60).

The target of test [3] is T1, VEGF165. The test is described as follows: VEGF ELISA of biotin-tagged D-peptides. The following applies: VEGF165 coated wells, streptavidin/HRP detection. It counts as binding. As for the experimental part:
An ELISA method was developed in which commercially available VEGF165 was coated into ELISA plate wells (MaxiSorb). Biotin-tagged D-peptides (or an anti-VEGF monoclonal antibody, BAF293, R & D Systems) were then added. After washing binding of peptides or antibody to VEGF was determined by treatment with a streptavidin/HRP conjugate which allows colorimetric detection of the presence of the biotin tagged peptides or antibody (see FIG. 3).

The next test concerns the target T3, VEGF165 binding to KDR (Homo sapiens, UniProt P15692).
T3 sequence (P15692 27-191 isoform P15692-4 limits assumed): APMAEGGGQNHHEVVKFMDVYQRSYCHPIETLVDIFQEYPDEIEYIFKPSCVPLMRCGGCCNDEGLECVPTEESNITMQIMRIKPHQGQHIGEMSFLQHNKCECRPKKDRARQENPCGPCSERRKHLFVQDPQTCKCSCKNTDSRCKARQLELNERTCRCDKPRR
The test is described as follows: Receptor ELISA (KDR).

Test [4] addresses T4, rh-VEGF165 binding to Flt-1 (Homo sapiens, UniProt P15692).
T4 sequence (P15692 27-191 isoform P15692-4 limits assumed): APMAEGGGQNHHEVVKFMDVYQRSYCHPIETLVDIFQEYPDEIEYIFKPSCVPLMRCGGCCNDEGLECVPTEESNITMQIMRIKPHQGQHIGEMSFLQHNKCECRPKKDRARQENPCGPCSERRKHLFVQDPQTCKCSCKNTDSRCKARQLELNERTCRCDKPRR
The experiment in a line: Receptor ELISA (Flt-1). From the text: VEGF acts on two distinct receptors in-vivo, Flt-1 (VEGFR1) and KDR (VEGFR2). The majority of pro-angiogenic signaling appears to be mediated by KDR. Flt-1 binds to VEGF isoforms with a higher affinity than KDR and may serve a largely regulatory role in vivo. […] These studies have been extended using ELISA assays on VEGF Flt-1 binding. In this experiment a soluble fusion of Flt-1 was coated onto Costar ELISA plates. After blocking (2% BSA), solutions of rh-VEGF165 containing serial dilutions of peptide test articles were added. Detection was accomplished using a biotinylated anti-VEGF antibody in combination with a streptavidin-HRP conjugate. The results of the Flt-1 assay are shown in FIG. 6 along with previous results from the analogous KDR assay for comparison.
In general terms: In an ELISA, binding on a coated surface is turned into a signal by an enzyme label.

For test [5], the system named is D-VEGF. The test is described as follows: ELISA of L-peptides from affinity maturation selection. It counts as binding. The following applies: 25 nM, also 5M, 100 nM, 50 nM and 5 nM. The procedure: FIG. 15 depicts an ELISA analysis of peptides deriving from sequences of the affinity maturation mRNA display selection at 25 nM. […] Then the plates were incubated with 25 nM of peptides 07-007, 07-071 and 07-072 respectively in HBS buffer for one hour at room temperature followed by 4× washes with HBS buffer. Detection with Streptavidin-Peroxidase stained with o-Phenylendiamin and H2O2 for 3 minutes.
Then the plates were incubated with either 5 μM or 100 nM of peptides 07-007, 07-071 and 07-072 respectively in HBS buffer for one hour at room temperature followed by 4× washes with HBS buffer. Detection with Streptavidin-Peroxidase stained with o-Phenylendiamin and H2O2 for 3 minutes.
Then the plates were incubated either with 50 nM or 5 nM of peptides 07-007, 07-071 and 07-072 respectively in HBS buffer for one hour at room temperature followed by 4× washes with HBS buffer. Detection with Streptavidin-Peroxidase stained with o-Phenylendiamin and H2O2 for 3 minutes.
Then the plates were incubated with 25 nM of peptides 07-007, 07-071 and 07-072 respectively in HBS buffer for one hour at room temperature followed by 4× washes with HBS buffer.

The test system of test [6] is VEGF-dependent cell growth. The experiment in a line: VEGF-dependent cell growth assay. It counts as cell-based.
Test [7] concerns the target D-VEGF (synthetic VEGF receptor binding domain, residues 8-109, made of D-amino acids) (Homo sapiens (Human)) (UniProt P15692). The experiment in a line: judged from ELISA signals on coated D-VEGF at 5 nM to 5 uM peptide; reference 07-007.

Entries after “also recorded” stand apart in the source; their conditions may differ. Non-standard residues stand in square brackets, D forms with d. Residues, ends and D or L forms follow the SMILES beside them. No end group written: not given here. PEG = not defined here

As to `CC(C)C[C@@H](NC(=O)[C@@H](CCCNC(=N)N)NC(=O)[C@H](NC(=O)CNC(=O)[C@@H](CCCNC(=N)N)NC(=O)[C@@H](Cc1c[nH]cn1)NC(=O)[C@@H](Cc1ccccc1)NC(=O)[C@H]1CCCN1C(=O)[C@@H](CC(C)C)NC(=O)[C@@H](CC(C)C)NC(=O)[C@H](NC(=O)[C@@H](Cc1c[nH]c2ccccc12)NC(=O)[C@@H](CO)NC(=O)CNC(=O)[C@@H](CC(C)C)NC(=O)[C@H](NC(=O)[C@@H](CO)NC(=O)[C@@H](CO)NC(=O)[C@H](NC(=O)[C@@H](CC(=O)O)NC(=O)[C@@H](CCC(=O)O)NC(=O)[C@@H](CCC(N)=O)NC(=O)[C@H](NC(=O)CN)C(C)C)C(C)C)[C@H](C)O)C(C)C)[C@H](C)O)C(=O)N[C@H](CO)C(=O)N[C@@H](C(=O)N[C@H](Cc1c[nH]c2ccccc12)C(=O)N[C@@H](C(=O)N[C@@H](C(N)=O)[C@H](C)O)C(C)C)C(C)C` [Peptide G2226] (H-G[dV][dQ][dE][dD][dV][dS][dS][dT][dL]G[dS][dW][dV][dL][dL][dP][dF][dH][dR]G[dT][dR][dL][dS][dV][dW][dV][dT]-NH2; N-terminus and C-terminus assumed), the “binding to commercially available VEGF 165” value at VEGF165 [1] is given as “found to bind”. Moreover, the “binding to L-VEGF” value at L-VEGF is on record as “binds only to L-VEGF; also recorded: found to bind”. The “binding to D-VEGF” value in the test with D-VEGF [2] is listed as “no detectable affinity”. In addition, in the test with HUVEC cells, the “activity in cell-based assays” value is on record as “does not appear to be active”. Besides, the “binding to VEGF165” value at VEGF165 [3] is given as “bind tightly; also recorded: best affinity”. For the same molecule, the “block of VEGF binding in the receptor ELISA” value on VEGF165 binding to KDR (receptor not specified) is given as “does not appear to block VEGF binding”.

On to “Avastin: Genentech's anti-VEGF antibody [reference compound]”, for which the “inhibition of HUVEC growth” value in the test with HUVEC cells is recorded as “strong inhibition”.

As for “GNALHWVCASNICWRPPWAGRLWGLVRLT [Peptide 07-D60, a modification of G2257]”, in the test on HUVEC cells (10 micromolar peptide vs 67 nM Avastin), the “inhibition of HUVEC growth compared with Avastin” value is on record as “approaches that for 67 nM Avastin”. Besides, the “inhibition of HUVEC growth” value with HUVEC cells was “inhibit HUVEC growth in a dose dependent manner; also recorded: inhibit HUVEC cell growth; also recorded: block HUVEC growth in a dose-dependent manner”.

Consider “GNALHWVCASNICWRPPWAGRLWGLVRLT [Peptide G2257]”, for which the “inhibition of VEGF binding to Flt-1” value in test [4] is reported as “inhibition of VEGF binding; also recorded: inhibits binding”. Also, the “inhibition of VEGF binding to KDR” value with VEGF165 binding to KDR (receptor ELISA) is reported as “inhibition of VEGF binding; also recorded: capable of inhibiting VEGF binding to KDR; also recorded: inhibits binding”.

On to “GVQEDVSSTLGSWVLLPFHRGTRLSVWVT (also: biotinylated form, place not given here) [G2211/2226]”, for which the “binding to VEGF165” value in the test with VEGF165 [3] was “bind tightly”; in the test with VEGF165 [3] (listed as G2211/G2226), “bind to VEGF165 selectively”.

Take “H2N-SGSSSGSGSGNALHWVCASNICWRTPWAGQLWRLVRLT-PEG-Bio (H-SGSSSGSGSGNALHWVCASNICWRTPWAGQLWRLVRLT-{PEG-biotin}; cysteine pairing not given here; reading uncertain) [Peptide 07-072]”: in the test on D-VEGF [5], the “affinity towards D-VEGF in comparison to the non-matured sequence deriving from G2306” value was “vast improvement”.

Regarding “NALHWVCASNICWRSPWAGRLWGLVRL [Peptide G2306]”, in test [6], the “inhibition in a VEGF-dependent cell growth assay” value is reported as “effective dose-dependent inhibition”.

B1: Peptide 07-072 (L-form; variant carrying all three hot spot mutations) (peptide)
peptide: H-SGSSSGSGSGNALHWVCASNICWRTPWAGQLWRLVRLT-{PEG-biotin}
modifications: cysteine pairing not given here; reading uncertain
Turning to B1, the fold improvement of affinity (against the non-mutated sequence 07-007) in [7] was > 10 >=fold.
